In patent US20230079819A1, “COMPOUNDS AND USES THEREOF” (Foghorn Therapeutics Inc., priority 2019, published 2023):

How the values were obtained:
BRM = target: T1, BRM (Homo sapiens, UniProt P51531); experiment: ATPase catalytic activity of BRM, ADP-Glo in vitro biochemical assay; settings: ATPase catalytic activity, 30 nM BRM, 400 μM ATP, read-out: BRM IP50 (μM)*
T1 construct: made in house; host or cells: High Five insect cells

BRG-1 = target: T2, BRG-1 (Homo sapiens, UniProt P51532); experiment: ATPase catalytic activity of BRG-1, ADP-Glo in vitro biochemical assay; settings: ATPase catalytic activity, 30 nM BRG-1, 400 μM ATP, read-out: BRG1 IP50 (μM)*
T2 construct: made in house; host or cells: High Five insect cells
T2 sequence (P51532 whole entry): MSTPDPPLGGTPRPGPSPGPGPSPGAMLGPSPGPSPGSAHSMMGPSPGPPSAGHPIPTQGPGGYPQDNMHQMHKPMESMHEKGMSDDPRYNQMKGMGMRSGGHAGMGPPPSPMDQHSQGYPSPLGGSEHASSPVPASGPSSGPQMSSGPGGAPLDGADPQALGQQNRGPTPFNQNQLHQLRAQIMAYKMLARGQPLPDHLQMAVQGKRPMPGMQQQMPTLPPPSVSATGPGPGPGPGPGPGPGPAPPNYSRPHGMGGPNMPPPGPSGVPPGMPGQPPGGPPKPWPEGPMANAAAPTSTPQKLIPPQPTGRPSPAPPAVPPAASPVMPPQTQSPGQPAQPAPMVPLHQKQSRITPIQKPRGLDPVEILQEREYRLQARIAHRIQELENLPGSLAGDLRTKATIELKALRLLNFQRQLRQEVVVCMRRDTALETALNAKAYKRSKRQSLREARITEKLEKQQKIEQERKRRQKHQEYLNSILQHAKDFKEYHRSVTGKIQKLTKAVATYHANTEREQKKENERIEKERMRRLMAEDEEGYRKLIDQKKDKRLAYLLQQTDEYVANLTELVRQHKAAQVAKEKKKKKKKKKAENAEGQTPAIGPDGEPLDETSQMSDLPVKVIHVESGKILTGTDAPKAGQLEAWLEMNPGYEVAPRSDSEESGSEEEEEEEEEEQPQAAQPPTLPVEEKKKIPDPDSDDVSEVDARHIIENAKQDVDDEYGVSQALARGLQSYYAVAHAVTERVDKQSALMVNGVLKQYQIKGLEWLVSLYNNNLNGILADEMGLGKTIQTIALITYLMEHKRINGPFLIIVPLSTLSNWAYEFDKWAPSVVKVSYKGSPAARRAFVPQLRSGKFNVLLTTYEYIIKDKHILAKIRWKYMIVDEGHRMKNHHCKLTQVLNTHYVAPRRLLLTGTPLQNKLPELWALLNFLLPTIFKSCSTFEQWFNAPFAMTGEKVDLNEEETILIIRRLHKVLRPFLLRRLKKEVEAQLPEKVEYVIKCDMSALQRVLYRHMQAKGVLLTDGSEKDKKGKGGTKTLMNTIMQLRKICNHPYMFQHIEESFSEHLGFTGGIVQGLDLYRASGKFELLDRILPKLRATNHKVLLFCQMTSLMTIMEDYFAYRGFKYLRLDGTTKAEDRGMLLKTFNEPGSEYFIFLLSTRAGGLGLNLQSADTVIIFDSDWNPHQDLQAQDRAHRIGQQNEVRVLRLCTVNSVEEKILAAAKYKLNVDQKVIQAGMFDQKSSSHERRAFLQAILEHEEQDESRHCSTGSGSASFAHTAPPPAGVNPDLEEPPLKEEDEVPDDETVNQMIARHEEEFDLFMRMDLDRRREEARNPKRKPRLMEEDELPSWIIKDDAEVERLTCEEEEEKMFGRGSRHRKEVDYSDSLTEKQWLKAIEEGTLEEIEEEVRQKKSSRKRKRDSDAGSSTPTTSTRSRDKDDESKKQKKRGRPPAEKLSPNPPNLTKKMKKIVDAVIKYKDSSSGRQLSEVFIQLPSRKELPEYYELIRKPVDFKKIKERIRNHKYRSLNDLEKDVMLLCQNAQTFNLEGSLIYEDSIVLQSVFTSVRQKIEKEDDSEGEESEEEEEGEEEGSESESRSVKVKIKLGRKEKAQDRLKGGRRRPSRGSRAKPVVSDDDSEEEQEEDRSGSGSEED

T1 sequence (P51531 whole entry): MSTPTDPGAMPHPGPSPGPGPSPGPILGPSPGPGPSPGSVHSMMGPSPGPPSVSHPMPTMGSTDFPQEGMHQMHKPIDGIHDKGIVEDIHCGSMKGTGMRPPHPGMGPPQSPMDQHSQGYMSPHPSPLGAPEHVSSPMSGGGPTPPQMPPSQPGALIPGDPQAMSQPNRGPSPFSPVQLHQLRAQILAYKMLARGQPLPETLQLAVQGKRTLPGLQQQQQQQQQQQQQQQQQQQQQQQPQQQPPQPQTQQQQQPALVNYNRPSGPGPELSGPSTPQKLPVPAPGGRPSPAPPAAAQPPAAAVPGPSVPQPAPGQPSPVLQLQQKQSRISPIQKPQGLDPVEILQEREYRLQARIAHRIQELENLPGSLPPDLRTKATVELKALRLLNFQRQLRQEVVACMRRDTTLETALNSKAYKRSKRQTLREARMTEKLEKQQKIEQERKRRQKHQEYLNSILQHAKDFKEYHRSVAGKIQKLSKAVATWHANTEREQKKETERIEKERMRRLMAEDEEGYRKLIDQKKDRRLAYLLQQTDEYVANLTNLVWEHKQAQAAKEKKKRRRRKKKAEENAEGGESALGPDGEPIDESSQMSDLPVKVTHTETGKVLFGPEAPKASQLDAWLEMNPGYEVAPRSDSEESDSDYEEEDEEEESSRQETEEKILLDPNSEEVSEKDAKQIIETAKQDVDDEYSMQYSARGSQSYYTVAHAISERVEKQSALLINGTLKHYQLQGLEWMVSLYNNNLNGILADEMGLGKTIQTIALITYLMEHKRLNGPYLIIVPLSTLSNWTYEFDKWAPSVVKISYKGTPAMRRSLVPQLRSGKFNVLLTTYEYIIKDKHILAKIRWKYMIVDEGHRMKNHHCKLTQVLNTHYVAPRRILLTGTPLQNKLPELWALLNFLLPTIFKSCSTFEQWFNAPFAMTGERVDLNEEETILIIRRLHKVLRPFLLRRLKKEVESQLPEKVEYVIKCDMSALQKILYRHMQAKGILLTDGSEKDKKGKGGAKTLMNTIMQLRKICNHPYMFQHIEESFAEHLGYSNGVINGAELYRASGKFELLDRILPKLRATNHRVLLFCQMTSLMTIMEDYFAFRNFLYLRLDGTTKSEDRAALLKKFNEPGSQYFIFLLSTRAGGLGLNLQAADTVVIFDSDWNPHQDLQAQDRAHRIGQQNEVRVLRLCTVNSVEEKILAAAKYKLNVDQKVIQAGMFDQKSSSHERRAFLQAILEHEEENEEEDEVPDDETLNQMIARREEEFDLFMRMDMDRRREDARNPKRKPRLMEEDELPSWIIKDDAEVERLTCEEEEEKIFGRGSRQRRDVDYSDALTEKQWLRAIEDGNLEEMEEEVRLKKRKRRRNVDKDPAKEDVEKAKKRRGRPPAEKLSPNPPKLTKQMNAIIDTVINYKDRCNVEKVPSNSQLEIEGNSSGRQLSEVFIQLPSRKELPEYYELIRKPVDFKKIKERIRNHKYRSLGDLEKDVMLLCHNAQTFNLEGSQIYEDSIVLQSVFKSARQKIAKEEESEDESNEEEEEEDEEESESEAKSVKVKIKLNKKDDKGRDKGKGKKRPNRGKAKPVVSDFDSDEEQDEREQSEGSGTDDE

SMILES | IC50 (BRM) | IC50 (BRG-1)
CN(C)CCN(C)c1cc(-c2cccc(-c3csc(NC(=O)CNC(=O)c4ccn(S(C)(=O)=O)c4)n3)c2)ccn1 [Compound 21, N-(2-((4-(3-(2-((2-(dimethylamino)ethyl)(methyl)amino)pyridin-4-yl)phenyl)thiazol-2-yl)amino)-2-oxoethyl)-1-(methylsulfonyl)-1H-pyrrole-3-carboxamide] | > 0.01 µM | > 0.01 µM
Cc1cc(-c2cccc(-c3csc(NC(=O)CNC(=O)c4ccn(C(C)(C)C)c4)n3)c2)ncn1 [Compound 22, 1-(tert-butyl)-N-(2-((4-(3-(6-methylpyrimidin-4-yl)phenyl)thiazol-2-yl)amino)-2-oxoethyl)-1H-pyrrole-3-carboxamide] | < 0.01 µM | < 0.01 µM
Cc1nccc(-c2cccc(-c3csc(NC(=O)CNC(=O)c4ccn(C(C)(C)C)c4)n3)c2)n1 [Compound 23, 1-(tert-butyl)-N-(2-((4-(3-(2-methylpyrimidin-4-yl)phenyl)thiazol-2-yl)amino)-2-oxoethyl)-1H-pyrrole-3-carboxamide] | < 0.01 µM | < 0.01 µM
CC(C)(C)n1ccc(C(=O)NCC(=O)Nc2nc(-c3cccc(-c4ccnc(CN)c4)c3)cs2)c1 [Compound 24, N-(2-((4-(3-(2-(aminomethyl)pyridin-4-yl)phenyl)thiazol-2-yl)amino)-2-oxoethyl)-1-(tert-butyl)-1H-pyrrole-3-carboxamide] | > 0.01 µM | > 0.01 µM
COC(C)(C)Cn1ccc(-c2cccc(-c3csc(NC(=O)CNC(=O)c4ccn(C(C)(C)C)c4)n3)c2)n1 [Compound 25, 1-(tert-butyl)-N-(2-((4-(3-(1-(2-methoxy-2-methylpropyl)-1H-pyrazol-3-yl)phenyl)thiazol-2-yl)amino)-2-oxoethyl)-1H-pyrrole-3-carboxamide] | > 0.01 µM | > 0.1 µM
Cn1nc(-c2cccc(-c3csc(NC(=O)CNC(=O)c4ccn(C(C)(C)C)c4)n3)c2)cc1CO [Compound 26, 1-(tert-butyl)-N-(2-((4-(3-(5-(hydroxymethyl)-1-methyl-1H-pyrazol-3-yl)phenyl)thiazol-2-yl)amino)-2-oxoethyl)-1H-pyrrole-3-carboxamide] | > 0.01 µM | > 0.01 µM
COCC(C)(C)n1ccc(C(=O)NCC(=O)Nc2nc(-c3cccc(-c4ccn(C)n4)c3)cs2)c1 [Compound 27, 1-(1-methoxy-2-methylpropan-2-yl)-N-(2-((4-(3-(1-methyl-1H-pyrazol-3-yl)phenyl)thiazol-2-yl)amino)-2-oxoethyl)-1H-pyrrole-3-carboxamide] | > 0.1 µM | > 1 µM
Cn1ccc(-c2cccc(-c3csc(NC(=O)CNC(=O)c4ccn(CC(C)(C)O)c4)n3)c2)n1 [Compound 28, 1-(2-hydroxy-2-methylpropyl)-N-(2-((4-(3-(1-methyl-1H-pyrazol-3-yl)phenyl)thiazol-2-yl)amino)-2-oxoethyl)-1H-pyrrole-3-carboxamide] | > 1 µM | > 1 µM
COC(C)(C)Cn1ccc(C(=O)NCC(=O)Nc2nc(-c3cccc(-c4ccn(C)n4)c3)cs2)c1 [Compound 29, 1-(2-methoxy-2-methylpropyl)-N-(2-((4-(3-(1-methyl-1H-pyrazol-3-yl)phenyl)thiazol-2-yl)amino)-2-oxoethyl)-1H-pyrrole-3-carboxamide] | > 1 µM | > 1 µM
Cn1ccc(-c2cccc(-c3csc(NC(=O)CNC(=O)c4ccn(C(C)(C)CO)c4)n3)c2)n1 [Compound 30, 1-(1-hydroxy-2-methylpropan-2-yl)-N-(2-((4-(3-(1-methyl-1H-pyrazol-3-yl)phenyl)thiazol-2-yl)amino)-2-oxoethyl)-1H-pyrrole-3-carboxamide] | > 0.01 µM | > 0.01 µM
Cn1cncc1C(=O)NCC(=O)Nc1nc(-c2cccc(C#N)c2)cs1 [Compound 31, N-(2-((4-(3-cyanophenyl)thiazol-2-yl)amino)-2-oxoethyl)-1-methyl-1H-imidazole-5-carboxamide] | > 1 µM | > 1 µM
Cn1nccc1C(=O)NCC(=O)Nc1nc(-c2cccc(C#N)c2)cs1 [Compound 32, N-(2-((4-(3-cyanophenyl)thiazol-2-yl)amino)-2-oxoethyl)-1-methyl-1H-pyrazole-5-carboxamide] | > 1 µM | > 1 µM
CS(=O)(=O)n1ccc(C(=O)NCC(=O)Nc2nc(-c3cccc(C#N)c3)cs2)c1 [Compound 33, N-(2-((4-(3-cyanophenyl)thiazol-2-yl)amino)-2-oxoethyl)-1-(methylsulfonyl)-1H-pyrrole-3-carboxamide] | > 0.01 µM | > 0.01 µM
CC(C)(C#N)n1ccc(C(=O)NCC(=O)Nc2nc(-c3cccc(C#N)c3)cs2)c1 [Compound 34, N-(2-((4-(3-cyanophenyl)thiazol-2-yl)amino)-2-oxoethyl)-1-(2-cyanopropan-2-yl)-1H-pyrrole-3-carboxamide] | > 0.01 µM | > 0.1 µM
CC(C)(C)n1ccc(C(=O)NCC(=O)Nc2nc(-c3cccc(C#N)c3)cs2)c1 [Compound 35, 1-(tert-butyl)-N-(2-((4-(3-cyanophenyl)thiazol-2-yl)amino)-2-oxoethyl)-1H-pyrrole-3-carboxamide] | > 0.1 µM | > 0.1 µM
CC(C)(C)n1ccc(C(=O)NCC(=O)Nc2nc(-c3cccc(C#N)c3)cs2)n1 [Compound 36, 1-(tert-butyl)-N-(2-((4-(3-cyanophenyl)thiazol-2-yl)amino)-2-oxoethyl)-1H-pyrazole-3-carboxamide] | > 0.1 µM | > 0.1 µM
CC(C)(C)n1cc(C(=O)NCC(=O)Nc2nc(-c3cccc(C#N)c3)cs2)cn1 [Compound 37, 1-(tert-butyl)-N-(2-((4-(3-cyanophenyl)thiazol-2-yl)amino)-2-oxoethyl)-1H-pyrazole-4-carboxamide] | > 1 µM | > 1 µM
NCCn1ccc(C(=O)NCC(=O)Nc2nc(-c3cccc(-c4ccncc4)c3)cs2)c1 [Compound 38, 1-(2-aminoethyl)-N-(2-oxo-2-((4-(3-(pyridin-4-yl)phenyl)thiazol-2-yl)amino)ethyl)-1H-pyrrole-3-carboxamide] | > 0.1 µM | > 0.1 µM
O=C(CNC(=O)c1ccn(C2CCNCC2)c1)Nc1nc(-c2cccc(-c3ccncc3)c2)cs1 [Compound 39, N-(2-oxo-2-((4-(3-(pyridin-4-yl)phenyl)thiazol-2-yl)amino)ethyl)-1-(piperidin-4-yl)-1H-pyrrole-3-carboxamide] | > 1 µM | > 1 µM
NCCS(=O)(=O)n1ccc(C(=O)NCC(=O)Nc2nc(-c3cccc(-c4ccncc4)c3)cs2)c1 [Compound 40, 1-((2-aminoethyl)sulfonyl)-N-(2-oxo-2-((4-(3-(pyridin-4-yl)phenyl)thiazol-2-yl)amino)ethyl)-1H-pyrrole-3-carboxamide] | > 0.01 µM | > 0.01 µM
CC(C)(C)n1ccc(C(=O)NCC(=O)Nc2nc(-c3cccc(-c4ccncc4)c3)cs2)c1 [Compound 41, 1-(tert-butyl)-N-(2-oxo-2-((4-(3-(pyridin-4-yl)phenyl)thiazol-2-yl)amino)ethyl)-1H-pyrrole-3-carboxamide] | < 0.01 µM | > 0.01 µM
CC(C)(CN)n1ccc(C(=O)NCC(=O)Nc2nc(-c3cccc(-c4ccncc4)c3)cs2)c1 [Compound 42, 1-(1-amino-2-methylpropan-2-yl)-N-(2-oxo-2-((4-(3-(pyridin-4-yl)phenyl)thiazol-2-yl)amino)ethyl)-1H-pyrrole-3-carboxamide] | > 0.01 µM | > 0.1 µM
CC(C)S(=O)(=O)n1ccc(C(=O)NCC(=O)Nc2nc(-c3cccc(-c4ccncc4)c3)cs2)c1 [Compound 43, 1-isopropylsulfonyl-N-[2-oxo-2-[[4-[3-(4-pyridyl)phenyl]thiazol-2-yl]amino]ethyl]pyrrole-3-carboxamide] | > 0.01 µM | > 0.01 µM
CS(=O)(=O)n1cc(C(=O)NCC(=O)Nc2nc(-c3cccc(-c4ccncc4)c3)cs2)cn1 [Compound 44, 1-(methylsulfonyl)-N-(2-oxo-2-((4-(3-(pyridin-4-yl)phenyl)thiazol-2-yl)amino)ethyl)-1H-pyrazole-4-carboxamide] | > 0.01 µM | > 0.1 µM
CS(=O)(=O)n1ccc(C(=O)NCC(=O)Nc2nc(-c3cccc(-c4ccncc4)c3)cs2)n1 [Compound 45, 1-(methylsulfonyl)-N-(2-oxo-2-((4-(3-(pyridin-4-yl)phenyl)thiazol-2-yl)amino)ethyl)-1H-pyrazole-3-carboxamide] | < 0.01 µM | < 0.01 µM
CS(=O)(=O)n1cnc(C(=O)NCC(=O)Nc2nc(-c3cccc(-c4ccncc4)c3)cs2)c1 [Compound 46, 1-(methylsulfonyl)-N-(2-oxo-2-((4-(3-(pyridin-4-yl)phenyl)thiazol-2-yl)amino)ethyl)-1H-imidazole-4-carboxamide] | < 0.01 µM | < 0.01 µM
CN(C)S(=O)(=O)n1ccc(C(=O)NCC(=O)Nc2nc(-c3cccc(-c4ccncc4)c3)cs2)c1 [Compound 47, 1-(N,N-dimethylsulfamoyl)-N-(2-oxo-2-((4-(3-(pyridin-4-yl)phenyl)thiazol-2-yl)amino)ethyl)-1H-pyrrole-3-carboxamide] | > 0.01 µM | > 0.01 µM
CC(=O)n1ccc(C(=O)NCC(=O)Nc2nc(-c3cccc(-c4ccncc4)c3)cs2)c1 [Compound 50, 1-acetyl-N-(2-oxo-2-((4-(3-(pyridin-4-yl)phenyl)thiazol-2-yl)amino)ethyl)-1H-pyrrole-3-carboxamide] | > 0.1 µM | > 0.1 µM
CS(=O)(=O)n1ccc(C(=O)NCC(=O)Nc2nc(-c3cccc(-c4cccc(CN)c4)c3)cs2)c1 [Compound 53, N-(2-((4-(3′-(aminomethyl)-[1,1′-biphenyl]-3-yl)thiazol-2-yl)amino)-2-oxoethyl)-1-(methylsulfonyl)-1H-pyrrole-3-carboxamide] | < 0.01 µM | < 0.01 µM
